{
  "source": "paper PMC8820799",
  "about": "“Angiogenesis and anti-leukaemia activity of novel indole derivatives as potent colchicine binding site inhibitors” (Journal of Enzyme Inhibition and Medicinal Chemistry, 2022)",
  "key": {"[1]": {"molecular_target": "T1, tubulin colchicine binding site (Sus scrofa, UniProt P02550+P02554)", "T1 construct": "purchased Cytoskeleton, Inc", "T1 sequence (P02554 whole entry)": "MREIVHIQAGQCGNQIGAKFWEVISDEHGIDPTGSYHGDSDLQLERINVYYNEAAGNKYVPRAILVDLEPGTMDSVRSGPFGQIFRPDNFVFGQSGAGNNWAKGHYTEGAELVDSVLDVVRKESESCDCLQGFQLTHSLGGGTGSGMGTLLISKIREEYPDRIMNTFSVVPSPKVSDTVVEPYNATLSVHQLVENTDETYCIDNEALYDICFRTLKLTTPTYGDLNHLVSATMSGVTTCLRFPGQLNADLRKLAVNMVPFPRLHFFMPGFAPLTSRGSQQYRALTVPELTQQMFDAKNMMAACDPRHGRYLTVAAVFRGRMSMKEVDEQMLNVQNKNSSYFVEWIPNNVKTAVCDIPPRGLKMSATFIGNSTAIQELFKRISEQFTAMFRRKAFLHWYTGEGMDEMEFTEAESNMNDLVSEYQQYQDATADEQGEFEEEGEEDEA", "T1 sequence (P02550 whole entry)": "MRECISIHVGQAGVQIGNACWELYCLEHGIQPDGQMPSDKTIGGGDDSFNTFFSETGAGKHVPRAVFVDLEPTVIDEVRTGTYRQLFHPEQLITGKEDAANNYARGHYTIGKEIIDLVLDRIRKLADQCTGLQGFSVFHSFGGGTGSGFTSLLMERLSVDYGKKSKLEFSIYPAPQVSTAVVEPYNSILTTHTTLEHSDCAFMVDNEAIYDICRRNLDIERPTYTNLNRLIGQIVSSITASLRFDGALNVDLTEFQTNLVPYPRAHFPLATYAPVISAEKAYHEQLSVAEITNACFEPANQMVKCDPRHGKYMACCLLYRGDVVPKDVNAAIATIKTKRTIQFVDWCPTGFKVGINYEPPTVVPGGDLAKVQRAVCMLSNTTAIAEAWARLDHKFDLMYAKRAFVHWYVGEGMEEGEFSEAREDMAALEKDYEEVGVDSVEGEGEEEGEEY", "assay": "[3H]colchicine-tubulin binding assay", "conditions": "compared with the positive control CA-4; Figure 4D", "description": "One micromolar radiolabeled colchicine [ring C, Methoxy-3H] (Perkin-Elmer), 1% DMSO and various concentrations of test compounds in 50 µL G-PEM buffer containing 80 mmol/L PIPES (pH 6.8), 1 mmol/L EGTA, 1 mmol/L MgCl2 and 1 mmol/L GTP, and 5% glycerol were incu-bated with […] (> 99% pure; Cytoskeleton, Inc.; 0.2 mg/mL) at 37 °C for 60 min. The binding solutions were filtered through a stack of 2 DEAE-cellulose filters and washed twice. The radioactivity in the […] was determined by liquid scintillation spectrometry (Perkin-Elmer Wallac). Nonlinear regression was used to analyse the data using GraphPad Prism."}, "[2]": {"assay": "In vitro metabolic stability, human liver microsomes", "format": "in vitro ADME", "conditions": "0.4 mg/mL protein", "description": "The metabolic stability assay was performed by incubating the test compound in mouse or human liver microsomes (XenoTech, lot no. 1510256) at 37 °C and a protein concentration of 0.4 mg/mL. Microsomal incubations were performed at a substrate concentration of 0.5 µM. Data analysis. Species scaling factors were used to convert the in vitro CLint(mL/min/mg) to an in vivo CLint(mL/min/kg)."}, "[3]": {"tested_on": "K562 cell xenograft in zebrafish embryos", "assay": "Zebrafish xenograft of K562 cells", "format": "in vivo", "conditions": "2 µM and 6 µM, compared with the control group", "description": "K562 cells were labelled with Red CMTPX according to the manufacturer’s protocol. Before the microinjections, Tg(flk:EGFP) embryos were kept at 28 °C and manually dechorionated few hours. At 48 hpf, 4 nL of cells suspension containing 400 labelled cells was microinjected into the yolk of anaesthetised embryos by a pneumatic pico pump (PV820, World Precision Instruments, USA). After injection, embryos were incubated to recover for at least 1 h at 28 °C, the embryos were distributed to 6-well plates with 20 embryos placed in each well. The injected xenografts were exposed to the indicated doses of compounds and maintained at 35 °C. DMSO (0.3%) was used as a vehicle control. The survival and development of the xenografted embryos was recorded every day until the end of experiment. At one day post injection (dpi), fluorescent microscopy was used to examine K562 cells size, death and migration in caudal region of anaesthetised zebrafish."}, "[4]": {"tested_on": "HL60", "assay": "CCK-8 assay, HL60", "format": "cell-based", "conditions": "Homo sapiens, HL-60; leukaemia, APL; CCK-8, 72 h", "description": "(§1) Cells were seeded in 96-well plates at a density of 8 × 10^3 per well and exposed to different concentrations of compounds for 72 h. Subsequently, 10 µL CCK8 solution was added to each well and co-incubated for another 3–4 h at 37 °C. The absorbance was determined at 450 nm. Data was calculated with GraphPad Prism5 software.[32]"}, "[5]": {"tested_on": "K562 cells", "assay": "Western blot of apoptosis-related proteins", "format": "cell-based", "conditions": "K562, 48 h", "description": "Exponentially growing K562 cells in were seeded in […] at a density of 6х10^5/dish and incubated overnight. The cultured cells were treated with indicated concentrations of 29e for 48 h. After the cells were washed with cold PBS, the supernatant was removed. Cells were scraped off the tissue culture dish, and then lysed by 100 µl ice-cold RIPA lysis buffer for 20 min with occasional agitation. The supernatant was collected by centrifuging at 12,000 g for 10 min at 4 °C. The protein concentration in the supernatant was determined by using a BCA protein assay kit. After BCA analysis to quantify proteins, samples were prepared in SDS-PAGE loading buffer, then boiled for 10 min at 100 °C. Western blot analyses were conducted after separation by SDS-PAGE electrophoresis and transfer to nitrocellulose filter (NC) membranes. Immunoblotting was performed according to the antibody manufacturers’ recommendations. Antibodies: caspase-3, caspase-9, PARP and β-actin."}, "[6]": {"tested_on": "K562", "assay": "CCK-8 assay, K562", "format": "cell-based", "conditions": "Homo sapiens, leukaemia, CML, CCK-8, 72 h", "description": "as §1"}, "[7]": {"tested_on": "transgenic zebrafish (FLK-1:EGFP)", "assay": "Zebrafish angiogenesis assay (ISVs)", "format": "in vivo", "conditions": "for IC50: transgenic zebrafish, triplicate, mean ± SD, read-out: Zebrafish (antiangiogenic activity IC50)", "description": "The transgenic flk: enhanced GFP zebrafish embryos were generated by pair-wise mating, collected and sorted into the 6-well plate (n = 30 per well) with 1 ml of aquaculture water (0.2 g/L of Instant Ocean Salt in distilled water) and raised at 28 °C. Then the embryos staged at 12 h post fertilisation (hpf) were treated with the indicated concentrations of compounds which were added into embryo water. About 30 embryos were screened for each concentration gradient. At 30hpf, the treated embryos were anaesthetised with 0.02% tricaine in embryo water and photographed. The numbers of ISVs were recorded under confocal microscopy. Results were obtained from three independent determinations and presented as mean ± SD.[38]"}, "[8]": {"molecular_target": "T2, Tubulin isolated from porcine brain tissue (Sus scrofa, UniProt P02550+P02554)", "T2 construct": "purchased Cytoskeleton (Denver, CO), via Beyotime, China; host or cells: porcine brain tissue", "T2 sequence (P02554 whole entry)": "as the sequence (P02554 whole entry) above", "T2 sequence (P02550 whole entry)": "as the sequence (P02550 whole entry) above", "assay": "Tubulin polymerisation assay", "format": "biochemical", "conditions": "triplicate, mean ± SD; read-out: Tubulin (tubulin inhibitory polymerisation IC50)", "description": "Tubulin polymerisation was determined with the tubulin polymerisation assay kit (Cytoskeleton, Denver, CO which was purchased from Cytoskeleton, Beyotime, China. Tubulin isolated from porcine brain tissue was used in this commercial kit.) It is based on the principal that light is scattered by microtubules to an extent that is proportional to the concentration of the microtubule polymer. Compounds that interact with tubulin will alter the polymerisation of tubulin, and this can be detected using a spectrophotometer. Tubulin polymerisation dynamics was monitored through measuring the change of absorbance at 340 nm every 2 min for 30 min at 37 °C on a spectrophotometer."}, "[9]": {"tested_on": "MV4-11", "assay": "CCK-8 assay, MV4-11", "format": "cell-based", "conditions": "Homo sapiens, leukaemia, AML, CCK-8, 72 h", "description": "as §1"}, "[10]": {"tested_on": "Jurkat", "assay": "CCK-8 assay, Jurkat", "format": "cell-based", "conditions": "Homo sapiens, leukaemia, ALL, CCK-8, 72 h", "description": "as §1"}, "[11]": {"tested_on": "HUVEC", "assay": "Tube formation assay", "format": "cell-based, human", "conditions": "0.1, 1 and 10 µM", "description": "Matrigel matrix (Basement Membrane Matrix, BD Biosciences) was thawed at 4 °C overnight. At this point, 50 µL of the matrix solution was added to each well of a 96-well plate. After gelling at 37 °C for 30 min, the matrix was overlaid with 200 µL of medium containing 1 × 10^5 HUVECs per well, which was incubated for 6 h to allow capillary tubes to form. Different concentrations of compounds were added in the cultures and incubated for 6 h to monitor the morphological changes of cells and tubes. The disappearance of existing vasculature was photographed at 10х magnification. Values were expressed as percent change form control cultures grown with complete medium.[36] Standard dimensional parameters (percent area covered by HUVECs and total length of the HUVEC network per field) were noted, and standard topological parameters (number of meshes and branching points per field) were estimated."}},
  "note": "Like-named read-outs stand apart in the source and are kept apart here.",
  "data": [
    {"smiles": "COc1cc(C(=O)/C=C/c2cn(S(=O)(=O)c3ccccc3)c3ccccc23)cc(OC)c1OC", "note": "[Compound 29e, (E)-3–(1-(Phenylsulfonyl)-1H-indol-3-yl)-1–(3,4,5-trimethoxyphenyl)prop-2-en-1-one]", "values": [
      {"measurement": "Effect on tubulin binding of [3H]colchicine", "setting": "[1]", "result": "efficiently bound to the [^3H]colchicine binding domain of tubulin"},
      {"measurement": "microsomal CLint at 0.5 µM", "setting": "[2]", "result": 16, "unit": "µL/min/mg"},
      {"measurement": "half-life at 0.5 µM", "setting": "[2]; 37 °C, read-out: Degradation half-life Human", "result": 35, "unit": "min"},
      {"measurement": "K562 fluorescence intensity and tumour area in zebrafish xenograft", "setting": "[3]", "result": "reduced intensities and decreased tumour area"},
      {"measurement": "IC50", "setting": "[4]", "result": "180 ± 2", "unit": "nM"},
      {"measurement": "Expression of caspase-3, caspase-9 and PARP", "setting": "[5]", "result": "decreased efficiently"},
      {"measurement": "Expression of cleaved caspase-3 and PARP", "setting": "[5]", "result": "up-regulation of cleaved caspase-3 and PARP"},
      {"measurement": "IC50", "setting": "[6]", "result": "90 ± 1", "unit": "nM"},
      {"measurement": "Formation of intersegmental vessels (ISVs) in zebrafish embryos", "setting": "[7]; 2.0 µM", "result": "efficiently blocked the formation of intersegmental vessels"},
      {"measurement": "Number and length of ISVs in zebrafish embryos", "setting": "[7]; 6.0 µM", "result": "the number and length of ISVs completely decreased"},
      {"measurement": "IC50", "setting": "[7]; Danio rerio", "result": 3600, "unit": "nM"},
      {"measurement": "IC50", "setting": "[7]", "result": "3400 ± 300", "unit": "nM"},
      {"measurement": "IC50", "setting": "[8]", "result": "4800 ± 700", "unit": "nM"},
      {"measurement": "IC50", "setting": "[9]", "result": "250 ± 20", "unit": "nM"},
      {"measurement": "IC50", "setting": "[10]", "result": "1220 ± 120", "unit": "nM"},
      {"measurement": "HUVEC tubule-like networks", "setting": "[11]", "result": "sharply reduced the width and length"}
    ]}
  ]
}
